Legend:
Type in all cases: binding
[1] = biological target: cytochrome P450 BM-3 (Priestia megaterium, UniProt P14779, R48K); test: spectral
[2] = biological target: T1, cytochrome P450 BM-3 (Priestia megaterium, UniProt P14779); test: crystal structure at […] Å
T1 sequence (P14779 1-1049): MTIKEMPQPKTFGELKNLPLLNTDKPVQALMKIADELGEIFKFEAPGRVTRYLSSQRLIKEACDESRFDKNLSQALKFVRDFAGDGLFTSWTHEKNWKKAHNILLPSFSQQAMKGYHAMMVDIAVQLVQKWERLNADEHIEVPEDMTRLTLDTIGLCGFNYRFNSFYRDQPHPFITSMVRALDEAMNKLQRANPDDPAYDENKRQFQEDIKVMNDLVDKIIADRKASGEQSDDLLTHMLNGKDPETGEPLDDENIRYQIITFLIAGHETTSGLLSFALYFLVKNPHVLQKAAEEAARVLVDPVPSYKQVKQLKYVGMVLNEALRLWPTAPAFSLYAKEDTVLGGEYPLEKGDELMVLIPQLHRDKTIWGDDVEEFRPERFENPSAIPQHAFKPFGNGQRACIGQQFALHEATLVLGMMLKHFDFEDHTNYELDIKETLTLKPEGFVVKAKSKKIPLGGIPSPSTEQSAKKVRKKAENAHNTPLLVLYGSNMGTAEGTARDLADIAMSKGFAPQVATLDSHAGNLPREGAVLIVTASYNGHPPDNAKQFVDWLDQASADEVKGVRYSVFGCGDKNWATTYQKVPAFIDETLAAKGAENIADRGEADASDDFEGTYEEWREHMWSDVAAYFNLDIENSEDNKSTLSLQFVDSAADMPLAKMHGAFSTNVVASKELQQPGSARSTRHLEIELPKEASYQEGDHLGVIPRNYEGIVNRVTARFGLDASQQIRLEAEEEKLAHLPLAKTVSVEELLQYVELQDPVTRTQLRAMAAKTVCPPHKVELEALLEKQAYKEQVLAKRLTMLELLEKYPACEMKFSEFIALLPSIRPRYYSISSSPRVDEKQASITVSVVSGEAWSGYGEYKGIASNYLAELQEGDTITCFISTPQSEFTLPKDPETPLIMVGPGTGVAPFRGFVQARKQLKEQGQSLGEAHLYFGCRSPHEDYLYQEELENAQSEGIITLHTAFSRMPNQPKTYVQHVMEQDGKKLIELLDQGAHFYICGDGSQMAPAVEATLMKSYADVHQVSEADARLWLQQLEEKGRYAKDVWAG

[3] = biological target: cytochrome P450 BM-3 (Priestia megaterium, UniProt P14779, R48Q); test: spectral
Chain of cytochrome P450 BM-3 (Priestia megaterium, UniProt P14779, R48Q) (P14779 whole entry R48Q): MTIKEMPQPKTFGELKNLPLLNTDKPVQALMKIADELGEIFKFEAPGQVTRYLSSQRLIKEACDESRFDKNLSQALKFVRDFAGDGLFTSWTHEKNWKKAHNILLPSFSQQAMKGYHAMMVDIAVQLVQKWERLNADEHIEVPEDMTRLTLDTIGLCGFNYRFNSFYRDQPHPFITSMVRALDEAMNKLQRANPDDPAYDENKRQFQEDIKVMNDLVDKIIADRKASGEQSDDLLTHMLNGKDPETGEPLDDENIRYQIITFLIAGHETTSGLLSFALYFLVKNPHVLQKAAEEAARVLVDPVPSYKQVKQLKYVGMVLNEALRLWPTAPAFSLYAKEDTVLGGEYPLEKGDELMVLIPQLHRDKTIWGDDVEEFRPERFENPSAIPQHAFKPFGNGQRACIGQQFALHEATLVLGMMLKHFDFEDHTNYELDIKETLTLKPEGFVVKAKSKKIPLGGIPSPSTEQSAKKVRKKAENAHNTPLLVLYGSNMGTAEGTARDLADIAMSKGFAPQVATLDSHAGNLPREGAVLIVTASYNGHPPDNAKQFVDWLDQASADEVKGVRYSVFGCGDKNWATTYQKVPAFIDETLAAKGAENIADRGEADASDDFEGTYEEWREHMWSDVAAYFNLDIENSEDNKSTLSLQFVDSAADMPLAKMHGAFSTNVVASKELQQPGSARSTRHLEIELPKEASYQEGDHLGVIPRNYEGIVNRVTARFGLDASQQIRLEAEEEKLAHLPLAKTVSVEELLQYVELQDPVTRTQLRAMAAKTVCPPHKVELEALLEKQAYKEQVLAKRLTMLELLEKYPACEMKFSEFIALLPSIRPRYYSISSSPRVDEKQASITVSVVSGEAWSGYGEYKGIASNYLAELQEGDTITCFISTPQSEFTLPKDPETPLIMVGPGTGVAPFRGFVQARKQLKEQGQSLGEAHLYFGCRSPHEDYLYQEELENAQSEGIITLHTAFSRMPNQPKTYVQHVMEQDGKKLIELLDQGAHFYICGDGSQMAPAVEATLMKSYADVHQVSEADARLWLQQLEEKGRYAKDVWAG

Chain of cytochrome P450 BM-3 (Priestia megaterium, UniProt P14779, R48K) (P14779 whole entry R48K): as the sequence (P14779 whole entry R48Q) above, with Q48K counted along it

SMILES: CCCCCCCCCCCCCCCC(=O)NCC(=O)O [NPG, N-palmitoylglycine]
- Kd [1]: 1200 ± 100 nM
- Kd [2]: 370 ± 50 nM
- Kd [3]: 7000 ± 700 nM
